Read-outs that look alike come from different tables or passages of the source.

The values that follow come from patent US12606543B2, “Indole derivatives as serotonergic agents useful for the treatment of disorders related thereto” (priority 2023, dated 2026).

Series [1] is described as follows: Pharmacokinetic studies in rat (i.v.). The format is in vivo. Particulars: male, Sprague-Dawley, plasma; for concentration at 0.25 h / concentration at 1 h / concentration at 4 h: intravenous, dose per Dose column (1.32-2.09 mg/kg); for half-life / AUC(0-t): iv, rat plasma, i.v., dose per Dose column; for half-life: estimated from 2 points only. The protocol:
Animals: Male Sprague-Dawley rats (˜225-350 g) from Charles River Labs were acclimatized for a minimum of 5 days prior to start of study procedures. Body weights were recorded on the day of dosing.
Any abnormalities were documented including presence/absence of wet dog shakes/back muscle contractions (WDS/BMC).
Dosing: Formulations were administered intravenously (i.v.) via the tail vein using a 25 G needle connected to a 1 cc syringe.
The exemplary compounds of Formula (I) were freshly prepared at the appropriate concentrations in 5% Tween-80 in saline.
Blood collection time (h): 0, […], 1 and 4
Volume/time-point: ˜0.25 mL (saphenous vein)
Instrumentation: AB Sciex QTRAP 4000 or 6500 MS/MS system equipped with an LC system with a binary pump, a solvent degasser, a thermostated column compartment, and a multiplate autosampler.
Analysis software: Phoenix® WinNonlin® 8.3 (Pharsight, Certara, Mountainview, CA).
Analysis methods: non-compartmental analysis, linear up/log down trapezoidal rule.
PK parameters: t1/2 and AUC0-tlast was estimated.
The Compounds of Formula (I) were freshly prepared at the appropriate concentrations in 5% Tween-80 in saline.
Instrumentation: AB Sciex QTRAP 4000 or 6500 MS/MS system equipped with an LC system with a binary pump, a solvent degasser, a thermostated column compartment and a multiplate autosampler.
PK parameters: t1/2 and AUC0-tlast will be estimated.

Series [2] concerns the target T1, human 5-HT2B receptor (Homo sapiens, UniProt P41595). The series is described as follows: Human 5-HT2B FLIPR calcium mobilization assay. The format is cell-based. Further details: expressed in transfected cells; host or cells: HEK293. Particulars: calcium mobilization FLIPR; for Emax (% of serotonin): HEK293 cells, relative to maximum response of serotonin; for EC50: stably transfected HEK293 cells, read-out: EC50. The protocol:
Compound potency (EC50) and efficacy (Max response) against the human 5-HT2B receptor in stably transfected HEK293 cells were determined in a calcium mobilization-based assay.
Cells were seeded in a total volume of 20 μL into white walled, 384-well microplates and incubated at 37° C. overnight. Prior to testing, cell plating media was exchanged with 20 μL of Dye Loading buffer (HBSS+20 mM HEPES containing 1× Dye, 1× Additive A, and 2.5 mM Probenecid). Plates were incubated at 37° C. for 45 mins followed by 15 mins at room temperature.
10 μL of assay buffer (HBSS+20 mM HEPES) were added to cells. Intermediate dilution of sample stocks was performed to generate 4× samples in assay buffer. Assay plates and compound plates were loaded into the FLIPR instrument. 10 μL of sample was added using the FLIPR onboard robotics after 5 seconds of starting calcium measurement. A final assay vehicle concentration was 1%. The results are expressed as percent efficacy relative to the maximum response of the control ligand (serotonin) in Table 12.
Compound potency (EC50) and efficacy (Max response) against the human 5-HT2B receptor in stably transfected HE K293 cells was determined in a calcium mobilization-based assay.
10 μL of assay buffer (HBSS+20 mM HEPES) was added to cells. Intermediate dilution of sample stocks was performed to generate 4× samples in assay buffer. Assay plates and compound plates were loaded into the FLIPR instrument. 10 μL of samples were added using the FLIPR onboard robotics after 5 secs of starting calcium measurement. The final assay vehicle concentration was 1%. The results are expressed as percent efficacy relative to the maximum response of the control ligand (serotonin) in Table 62.
For orientation: Calcium assays in cells follow changes in intracellular calcium, usually with a dye or a luminescent sensor.

For series [3], the target named is T1, human 5-HT2B receptor. Description: Human 5-HT2B radioligand binding assay ([3H]-LSD). The conditions noted are these: [3H]-LSD displacement, cell membrane, 37° C., 90 min. The protocol: The objective of this study was to evaluate the binding properties of test compounds on 5-HT2B.
1) The assay buffer was prepared following Table 29 below.
2) Eight doses of reference and test compounds starting from 10 mM stock solution as requested by 5-fold serial dilutions with 100% (v/v) DMSO.
3) UniFilter-96 GF/B plate was pretreated: • a. 50 μL/well of 0.5% (v/v) PEI to UniFilter-96 GF/B plates. The plates were sealed and incubated at 4° C. for 3 hrs. • b. After incubation, the plates were washed 3 times with ice-cold wash buffer (50 mM Tris, pH 7.4).
4) Assay plate preparation: • a. Cell membrane was diluted with assay buffer and 330 μL/well added to 96 round deep well plates to reach a concentration of 1 unit/well. • b. Eight concentrations of reference or test compounds were prepared and 110 μL/well added to 96 round deep well plates. • c. [3H]-LSD was diluted with assay buffer to 5 nM (5× final concentration) and 110 μL/well was added to 96 round deep well plates.
5) The plate was centrifuged at 1000 rpm for 30 secs and then agitated at 600 rpm at room temperature for 5 mins.
6) The plates were sealed and incubated at 37° C. for 90 mins.
7) The incubation was stopped by vacuum filtration onto GF/B filter plates followed by washing four times with ice-cold wash buffer (50 mM Tris, pH7.4).
9) The filter plates were sealed and 40 μL/well of scintillation cocktail was added.
10) The plate was read using a Microbeta2 microplate counter.
For reference and test compounds, the results are expressed as % Inhibition, using the normalization equation: N=100−100×(U−C2)/(C1−C2), where U is the unknown value, C1 is the average of high controls, and C2 is the average of low controls. The IC50 is determined by fitting percentage of inhibition as a function of compound concentrations with Hill equation.
The objective of this study is to evaluate the binding properties of test compounds on 5-HT2B.
1) The assay buffer was prepared following Table 59 below.
3) UniFilter-96 GF/B plate was pretreated: • a. 50 μL/well of 0.5% (v/v) PEI to UniFilter-96 GF/B plates. The plates were sealed and incubate at 4° C. for 3 hrs. • b. After incubation, the plates were washed three times with ice-cold wash buffer (50 mM Tris, pH7.4).
5) The plate was centrifuged at 1000 rpm for 30 secs and then agitated at 600 rpm at room temperature for 5 min.
8) The plates were dried at 37° C. for 45 mins.
10) The plate was read using a Microbeta^2 microplate counter.
For reference and test compounds, the results are expressed as % Inhibition, using the normalization equation: N=100−100×(U−C2)/(C1−C2), where U is the unknown value, C1 is the average of the high controls, and C2 is the average of the low controls. The IC50 is determined by fitting percentage of inhibition as a function of compound concentrations with Hill equation.

Setting [4] is: first animal (R07/R04/R01/R10), read-out: Plasma concentration.
The mark [5] stands for this setting: mean of 3 rats, read-out: Plasma concentration, Mean ± SD.
Setting [6] is: second animal (R08/R05/R02/R11), read-out: Plasma concentration.
[7] abbreviates: third animal (R09/R06/R03/R12), read-out: Plasma concentration.
Setting [8] is: first animal (R07/R04/R01/R10), read-out: Apparent t1/2 (converted).
Where [9] appears, read: mean of 3 rats, read-out: Apparent t1/2, Mean ± SD (converted).
The mark [10] stands for this setting: second animal (R08/R05/R02/R11), read-out: Apparent t1/2 (converted).
[11] abbreviates: third animal (R09/R06/R03/R12), read-out: Apparent t1/2 (converted).
Setting [12] is: first animal (R07/R04/R01/R10), read-out: AUC0-tlast.
[13] abbreviates: mean of 3 rats, read-out: AUC0-tlast, Mean ± SD.
[14] abbreviates: second animal (R08/R05/R02/R11), read-out: AUC0-tlast.
[15] abbreviates: third animal (R09/R06/R03/R12), read-out: AUC0-tlast.

T1 sequence (P41595 whole entry): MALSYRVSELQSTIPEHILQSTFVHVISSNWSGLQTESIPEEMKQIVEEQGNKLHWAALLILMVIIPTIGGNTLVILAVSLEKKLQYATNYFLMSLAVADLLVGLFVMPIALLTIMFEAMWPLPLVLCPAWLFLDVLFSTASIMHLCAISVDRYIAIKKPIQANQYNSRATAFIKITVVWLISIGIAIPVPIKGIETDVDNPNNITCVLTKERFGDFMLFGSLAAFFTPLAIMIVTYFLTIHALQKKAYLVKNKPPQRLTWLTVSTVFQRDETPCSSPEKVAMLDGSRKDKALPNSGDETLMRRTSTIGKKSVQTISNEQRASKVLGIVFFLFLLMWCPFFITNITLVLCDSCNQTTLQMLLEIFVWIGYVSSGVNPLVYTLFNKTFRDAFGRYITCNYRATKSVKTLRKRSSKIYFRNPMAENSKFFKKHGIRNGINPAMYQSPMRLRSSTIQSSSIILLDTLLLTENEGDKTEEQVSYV

On to `[2H]C([2H])(c1c[nH]c2ccc(OCCCCCN3C(=O)c4ccccc4C3=O)cc12)[C@H]1CCCN1C([2H])([2H])[2H]` [(R) I-245, (R)-2-(5-((3-((1-(Methyl-d3)pyrrolidin-2-yl)methyl-d2)-1H-indol-5-yl)oxy)pentyl)isoindoline-1,3-dione], for which the concentration at 0.25 h amounted to 307 ng/mL in series [1] (setting [4]), 178 ± 119 ng/mL in series [1] (setting [5]), 154 ng/mL in series [1] (setting [6]) and 71.8 ng/mL in series [1] (setting [7]). In addition, the concentration at 1 h in series [1] (setting [4]) is 170 ng/mL; in series [1] (setting [5]), 130 ± 36.6 ng/mL; in series [1] (setting [6]), 121 ng/mL; in series [1] (setting [7]) it was 98.3 ng/mL. The concentration at 4 h in series [1] (setting [4]) came to 39.9 ng/mL; in series [1] (setting [5]), 43.9 ± 4.21 ng/mL; in series [1] (setting [6]), 43.6 ng/mL; in series [1] (setting [7]) it was 48.3 ng/mL. The half-life in series [1] (setting [8]) is 1.32 h; in series [1] (setting [9]), 2.1 ± 0.806 h; in series [1] (setting [10]), 2.05 h; in series [1] (setting [11]), 2.93 h. Besides, the AUC(0-t) in series [1] (setting [12]) amounted to 528 ng·h/mL; in series [1] (setting [13]), 397 ± 120 ng·h/mL; in series [1] (setting [14]), 370 ng·h/mL; in series [1] (setting [15]), 293 ng·h/mL. Further, the “Emax (% of serotonin)” value on human 5-HT2B receptor [2] is listed as 53.91 % of serotonin. Moreover, the half-maximal effective concentration (EC50) on human 5-HT2B receptor [2] came to 11.2 nM.

For `[2H]C([2H])(c1c[nH]c2ccc(OCCCCCN3C(=O)[C@H]4CCCC[C@H]4C3=O)cc12)[C@H]1CCCN1C([2H])([2H])[2H]` [Cis (R) I-248, 2-(5-((3-(((R)-1-(Methyl-d3)pyrrolidin-2-yl)methyl-d2)-1H-indol-5-yl)oxy)pentyl)hexahydro-1H-isoindole-1,3(2H)-dione], at human 5-HT2B receptor [2], the “Emax (% of serotonin)” value is 69.85 % of serotonin and the EC50 came to 24.9 nM.

Take `[2H]C([2H])(c1c[nH]c2ccc(OCCCCCN3C(=O)C4CCCCC4C3=O)cc12)[C@H]1CCCN1C([2H])([2H])[2H]` (mixture of isomers) [Rac (R) I-248]: the IC50 on human 5-HT2B receptor [3] (read-out: 5-HT2B, IC50) amounted to 46.3 nM. Also, the Ki at human 5-HT2B receptor [3] (read-out: 5-HT2B, Ki) stood at 23.9 nM. In addition, the concentration at 0.25 h in series [1] (setting [4]) was 235 ng/mL; in series [1] (setting [5]) it was 377 ± 123 ng/mL; in series [1] (setting [6]), 437 ng/mL; in series [1] (setting [7]) it was 459 ng/mL. Besides, the concentration at 1 h in series [1] (setting [4]) worked out at 134 ng/mL; in series [1] (setting [5]), 144 ± 15.9 ng/mL; in series [1] (setting [6]) it was 135 ng/mL; in series [1] (setting [7]), 162 ng/mL. For the same compound, the concentration at 4 h in series [1] (setting [4]) came to 27.8 ng/mL; in series [1] (setting [5]), 18.8 ± 8.29 ng/mL; in series [1] (setting [6]) it was 11.5 ng/mL; in series [1] (setting [7]), 17 ng/mL. For the same compound, the half-life was 1.25 h in series [1] (setting [8]), 0.939 ± 0.269 h in series [1] (setting [9]), 0.747 h in series [1] (setting [10]) and 0.823 h in series [1] (setting [11]). The AUC(0-t) was 402 ng·h/mL in series [1] (setting [12]), 474 ± 71 ng·h/mL in series [1] (setting [13]), 477 ng·h/mL in series [1] (setting [14]) and 544 ng·h/mL in series [1] (setting [15]).

In general, EC50 refers to the midpoint of the concentration-response curve. For orientation: IC50 means the concentration that gives 50% inhibition. What is called Ki is the dissociation constant of the complex between target and ligand, obtained from inhibition or displacement.
